Measurements from EPA's aquatic toxicity sets.
Where “and” joins values, the source holds several entries; their conditions need not be identical. Equal values may be shown once.

System: Tetrahymena pyriformis
Assay: 48 h IGC50 (-log10 mol/L); higher = more toxic

| Compound | 48 h IGC50 (-log10 mol/L) |
| --- | --- |
| O=C(c1ccc(O)cc1O)c1ccc(O)cc1O | 3.96 |
| C=CCOC(C)=O | 3.48 |
| CCCC#CCO | 2.62 |
| O=C(O)CCCCBr | 2.31 |
| O=C(CBr)c1ccc2ccc3cccc4ccc1c2c34 | 5.39 |
| CC(C)CCOC(=O)c1ccc(O)cc1 | 4.48 |
| CCCOC=O | 1.98 |
| O=[N+]([O-])c1ccc(O)c(Cl)c1 | 4.18 |
| CCCCCC(C)O (stereo not drawn) | 2.53 |
| CCCCCCCl | 3.78 |
| C#CCOC(=O)C=C | 4.06 |
| N#Cc1ccc(Cl)cc1 | 3 |
| O=[N+]([O-])c1cccc(CO)c1 | 2.78 |
| Clc1cccc(Br)c1Cl | 4.3 |
| COC(=O)c1cccc(O)c1 | 2.95 |
| N#CCCCCCCCl | 3.29 |
| Cc1cc(C)c(O)c(C)c1 | 3.42 |
| O=Cc1ccc2c(c1)Cc1ccccc1-2 | 4.5 |
| O=C1CCCC(=O)C1 | 2.07 |
| CCCCCCOC(C)=O | 2.99 |
| COc1cc(O)ccc1O | 5.2 |
| CCOC(=O)c1ccc(Cl)cc1 | 3.75 |
| c1cnc2c(c1)ccc1ncccc12 | 4.07 |
| CCC(Cl)C(N)=O (stereo not drawn) | 1.78 |

| Compound | 48 h IGC50 (-log10 mol/L) |
| --- | --- |
| O=Cc1ccsc1 | 3.4 |
| CC(=O)OC/C=C/c1ccccc1 | 3.59 |
| C=CC(=O)OCCCCC | 3.54 |
| CC(CCO)c1ccccc1 (stereo not drawn) | 3.01 |
| O=[N+]([O-])c1cc(F)cc(I)c1 | 4.09 |
| S=C=NCCCN=C=S | 5.72 and 5.74 |
| O=Cc1ccccn1 | 2.86 |
| OCCCCCl | 2.24 |
| CC(=O)c1ccn(C)c1 | 2 |
| CC1=CC(=O)c2c(O)cccc2C1=O | 5.2 |
| CCCCC#N | 1.99 |
| N#CCc1ccc(Cl)cc1 | 3.66 |
| O=C(CBr)C(=O)CBr | 4.76 |
| CCCCC/C=C/CCC=O | 4.21 |
| CC(O)CBr (stereo not drawn) | 1.81 |
| C=COC(=O)CCC | 2.62 |
| O=[N+]([O-])c1ccc(Br)cc1 | 3.38 |
| Oc1c(-c2ccccc2)cccc1-c1ccccc1 | 5.11 |
| COc1ccc(C(C)=O)cc1 | 2.87 |
| CCCCCCOc1ccc(O)cc1 | 4.64 |
| CC(=O)N(C)C | 1.05 |
| CCCc1ccc(O)cc1 | 3.64 |
| CCOC(=O)CBr | 5.68 |
| C/C=C/C=C/C=O | 3.74 |

| Compound | 48 h IGC50 (-log10 mol/L) |
| --- | --- |
| N#CCc1ccc(O)cc1 | 2.62 |
| CCC(=O)OC | 1.39 |
| Nc1cc([N+](=O)[O-])ccc1Cl | 3.6 |
| O=C(O)c1ccc(Cl)c(Cl)c1 | 3.31 |
| O=C1C=C(c2ccccc2)C(=O)C=C1c1ccccc1 | 4.48 |
| OCc1cccc(O)c1 | 1.98 |
| N#CCCCBr | 2.54 |
| Nc1cc([N+](=O)[O-])cc(Cl)c1O | 4.2 |
| CCOC(=O)C(Br)CBr (stereo not drawn) | 5.21 |
| CCCCOC(=O)c1ccccc1 | 3.92 |
| OC/C=C\CO | 0.851 |
| N#Cc1cccc2ccccc12 | 3.69 |
| OCC(Br)(Br)Br | 3.11 |
| O=C(O)c1cccc(Cl)c1Cl | 2.59 |
| C#CC(C)(O)CCC (stereo not drawn) | 2.1 |
| CC(=O)c1ccc(C)o1 | 2.17 |
| CCc1ccc(N)cc1 | 3.03 |
| CC(C)C#N | 1.38 |
| Cc1cccc(CO)c1 | 2.76 |
| CC(Cl)C#N (stereo not drawn) | 2.14 |
| O=[N+]([O-])c1ccccc1F | 3.23 |
| CCC#CC(O)CC (stereo not drawn) | 2.97 |
| CCCCCCCCCC(C)O (stereo not drawn) | 4.58 |
| Nc1c(Cl)cc(Cl)cc1[N+](=O)[O-] | 4.26 |

| Compound | 48 h IGC50 (-log10 mol/L) |
| --- | --- |
| Cc1ccc(-c2ccccc2)cc1 | 4.66 |
| Brc1ccoc1 | 2.52 |
| C/C=C/CC(=O)OC | 2.72 |
| N#CCCCc1ccccc1 | 3.15 |
| CCOS(=O)OCC | 2.01 |
| CCCOC(=O)CC | 2.19 |
| NC(=O)Oc1ccccc1 | 2.61 |
| CC(C)CCCO | 2.36 |
| COc1cccc(C#N)c1 | 3.01 |
| NCC(O)CN | 1.57 |
| O=[N+]([O-])c1ccc2ccccc2c1O | 4.36 |
| C=CC(O)CC (stereo not drawn) | 1.65 |
| Nc1ccc([N+](=O)[O-])cn1 | 3.22 |
| CC(C)C(N)CO (stereo not drawn) | 2.42 |
| O=C(O)CCCC(=O)O | 2.36 |
| Oc1ccc(F)cc1F | 3.6 |
| Cc1cc(Cl)ncc1[N+](=O)[O-] | 3.42 |
| CC(Br)C(N)=O (stereo not drawn) | 3 |
| S=C=NCc1cccc2ccccc12 | 6.06 |
| N#Cc1cccc(C=O)c1 | 2.98 |
| O=[N+]([O-])c1cnc(Cl)c([N+](=O)[O-])c1 | 5.64 |
| CCSc1ccccc1 | 3.3 |
| NC(=S)c1ccccc1 | 3.09 |
| OCC#Cc1ccccc1 | 3.07 |

| Compound | 48 h IGC50 (-log10 mol/L) |
| --- | --- |
| CCOC(=O)CCCC(=O)CC(=O)OCC | 2.62 |
| Cc1ccc(Cl)c(O)c1 | 3.54 |
| Oc1c(F)c(F)c(F)c(F)c1F | 4.63 |
| N#CSCc1ccccc1 | 4.05 |
| CC(C)(C)CCO | 2.26 |
| O=C(CO)c1ccccc1 | 3.08 |
| CCCCCN=C=S | 4.71 |
| C#CCNC | 2.02 |
| N#CCCC#N | 1.18 |
| CCCCCC#CCCO | 3.34 |
| C=CC(=O)N(C)C | 1.76 |
| CCCCCCCCCCC#CCCO | 5.38 |
| CS(C)=O | 0.548 |
| C=C(C=O)CC | 3.91 |
| O=[N+]([O-])c1c(F)cc(F)c(F)c1F | 4.87 |
| O=C(O)c1cc(Cl)ccc1Cl | 2.54 |
| NC(=O)c1cccc([N+](=O)[O-])c1 | 2.81 |
| C/C=C/C(=O)O | 2.46 |
| Oc1cccc(Br)c1 | 4.15 |
| O=C(O)CCBr | 2.96 |
| N#Cc1cccnc1 | 2.26 |
| O=Cc1ccc(Br)cc1 | 3.59 |
| Fc1cc(F)c(F)nc1F | 2.39 |
| CCCCCOC(C)=O | 3.16 |

| Compound | 48 h IGC50 (-log10 mol/L) |
| --- | --- |
| CC1CCCCC1=O (stereo not drawn) | 2.19 |
| O=C(O)c1ccccc1Cl | 2.55 |
| CC(=O)NN | 1.62 |
| CCOC(=O)CCCCCBr | 3.59 |
| CCCNCCO | 1.32 |
| CC(C)(O)c1ccccc1 | 2.43 |
| N#Cc1ccccc1[N+](=O)[O-] | 4.08 |
| OCC(c1ccccc1)c1ccccc1 | 3.65 |
| O=C1CCO1 | 2.88 |
| CCCCC1CCC(=O)O1 (stereo not drawn) | 2.62 |
| C#CC(O)C(C)C (stereo not drawn) | 2.97 |
| CCCCCCC#N | 2.76 |
| CCCC/C=C/C(C)=O | 3.74 |
| CCCCCCC(O)CCC (stereo not drawn) | 3.85 |
| CCOc1cc(O)ccc1OC | 2.7 |
| COC(=O)c1cc(O)cc(O)c1 | 2.86 |
| CC1CC(=O)O1 (stereo not drawn) | 2.24 |
| Oc1cccc(Cl)c1Cl | 4.28 |
| Fc1ccc(-c2ccccc2)cc1 | 3.53 |
| OCCCc1ccccc1 | 2.79 |
| CCCC(CCC)C(=O)O | 3.03 |
| O=C(c1ccccc1)c1ccccc1O | 4.23 |
| CCN(CC)C(=O)CCl | 3.52 |
| NC(=O)CCl | 3.04 |

| Compound | 48 h IGC50 (-log10 mol/L) |
| --- | --- |
| CCOC(=O)CCl | 4.06 |
| Cc1cc(=O)[nH]cc1[N+](=O)[O-] | 2.83 |
| CCCCC(=O)C(C)=O | 3.04 |
| O=[N+]([O-])c1cccnc1SCc1ccccc1 | 4.72 |
| OCC(Cl)Cl | 2.01 |
| CCCC(Br)C(=O)OCC (stereo not drawn) | 3.7 |
| CCCC(CO)CCC | 3.13 |
| O=Cc1cc(Cl)cc(Cl)c1O | 4.55 |
| CC=CC(=O)OC(C)C | 2.22 |
| O=C(CCl)CCl | 5.05 |
| CCCCCCCCCC=CCO | 5.09 |
| C/C=C/C(C)=O | 3.54 |
| O=[N+]([O-])c1cc(I)c(O)c(I)c1 | 4.81 |
| S=C=NCCCc1ccccc1 | 5.54 |
| CC(=O)OC1=CCCCC1 | 2.6 |
| O=Cc1cccc([N+](=O)[O-])c1O | 3.87 |
| CCCCCCCC(=O)c1ccccc1 | 4.89 |
| N#Cc1cccc(Cl)c1 | 2.94 |
| O=C(OCc1ccccc1)c1ccc(O)cc1 | 4.55 |
| N#Cc1ccccc1N | 2.5 |
| Clc1ccc(Br)s1 | 3.75 |
| O=Cc1cccc(Br)c1 | 3.51 |
| COC(=O)CCCC(=O)OC | 1.83 |
| C=CSc1ccccc1 | 3.42 |
